This is an account of results in patent US9958451B2, “Near-infrared fluorescent dyes with large stokes shifts” (Portland State University, priority 2011, dated 2018).

Molecules are shown by their SMILES. Marks after values point to notes of the source that are not given here.

Data set [1] is described as follows: Spectral properties of rhodamine bis-boronic acids and precursors in DMSO:buffer. The data set is classed as physicochemical. Also on record: Brightness: scale not given here. The following applies: for Quenching of emission (PET) of the free boronic acid: DMSO buffer 1:9. How it is done:
Characterization: The spectral properties of compounds 50-53 were determined. Absorption and fluorescence spectra of solutions of the rhodamine bis-boronic acids 51 and 53, and their respective precursors 50 and 52, are shown in FIGS. 27A-C (in DMSO:buffer 1:9) and 27D-F (DMSO:buffer 1:1). […] Excitation and emission spectra were normalized to their absorbance at the excitation wavelength, and are proportional to quantum yield.

A short description of data set [2]: Saccharide sensing, response to fructose. On the procedure:
(§1) Solvents including MeCN, MeOH, EtOH, DMSO and buffer were initially screened for sugar sensing. […] DMSO mixtures were chosen for further studies.
(§2) The final pH 7.4 phosphate buffer concentration was 12.5 mM.

Data set [3] can be described thus: Saccharide sensing, response to ribose. The note with it: DMSO:buffer 1:1, entire concentration range. How it is done: as §1, §2
The mark [4] stands for this setting: DMSO:buffer 1:1, pH 7.4 phosphate buffer 12.5 mM.
Setting [5] is: DMSO:buffer 1:9, pH 7.4 phosphate buffer 12.5 mM.

As to `O=C(O)c1ccccc1-c1c2ccc3cc(NCc4ccccc4B(O)O)ccc3c2oc2c1ccc1cc(=NCc3ccccc3B(O)O)ccc12` [Compound 53, naphthorhodamine bis-boronic acid], the “Quenching of emission (PET) of the free boronic acid” value in data set [1] is listed as “nearly completely quenched”. Also, in data set [1] (DMSO:buffer 1:1), the Brightness is 292^g, the Em is reported as 700 nm, the Ex worked out at 624 nm and the Q.Y. was found to be 0.18. This compound came in with a ε in data set [1] (DMSO:buffer 1:1) of 1616 M⁻¹ cm⁻¹. The Abs in data set [1] (setting [4]) is 616 nm. Also, in data set [1] (DMSO:buffer 1:9), the Brightness is reported as 43^d,f, the Em is given as 692 nm, the Ex was found to be 612 nm and the Q.Y. came out at 0.004. This compound had a ε in data set [1] (DMSO:buffer 1:9) of 10759 M⁻¹ cm⁻¹. This compound also had an Abs in data set [1] (setting [5]) of 628 nm. In addition, the “Estimated quantum yield after binding” value in data set [2] (DMSO:buffer 1:9) is 0.186. Besides, in data set [2] (DMSO:buffer 1:9, highest concentration of fructose), the “Increase in absorbance at 630 nm” value was “less than 3 fold”.
Regarding `O=C(O)c1ccccc1-c1c2ccc(=NCc3ccccc3B(O)O)cc-2oc2c1ccc1cc(NCc3ccccc3B(O)O)ccc12` [Compound 51, seminaphthorhodamine bis-boronic acid], in data set [1], the “Quenching of emission (PET) of the free boronic acid” value is “slightly quenched”. In data set [1] (DMSO:buffer 1:1), this compound returned a Brightness of 8037, an Em of 643 nm, an Ex of 580 nm and a Q.Y. of 0.35. In data set [1] (DMSO:buffer 1:1), this compound registered a ε of 23096 M⁻¹ cm⁻¹. The Abs in data set [1] (setting [4]) turned out to be 579 nm. Moreover, in data set [1] (DMSO:buffer 1:9), the Brightness is on record as 3032^e, the Em worked out at 638 nm, the Ex worked out at 568 nm and the Q.Y. is recorded as 0.15. In data set [1] (DMSO:buffer 1:9), this compound displayed a ε of 20326 M⁻¹ cm⁻¹. This compound came in with an Abs in data set [1] (setting [5]) of 560 nm. In addition, in data set [3], the Increase in absorbance entry is given as “approximately 1.5 fold” and the Increase in fluorescence result is “approximately 1.5 fold”.
